Settings: Brillouin light scattering

CCC(C)(C)OC [2-methoxy-2-methylbutane]
Settings | speed of sound [m/s]
443.15 K, 2500 kPa, Liquid | 537.57
443.15 K, 4000 kPa, Liquid | 561.49
443.15 K, 5500 kPa, Liquid | 584.45
443.15 K, 7000 kPa, Liquid | 606.46
443.15 K, 8500 kPa, Liquid | 627.51
443.15 K, 10000 kPa, Liquid | 647.61
453.15 K, 660 kPa, Liquid | 468.81
453.15 K, 2500 kPa, Liquid | 495.6
453.15 K, 4000 kPa, Liquid | 520.74
453.15 K, 5500 kPa, Liquid | 544.94
453.15 K, 7000 kPa, Liquid | 568.2
453.15 K, 8500 kPa, Liquid | 590.53
453.15 K, 10000 kPa, Liquid | 611.92
463.15 K, 820 kPa, Gas | 194.03
463.15 K, 820 kPa, Liquid | 424.99
463.15 K, 2500 kPa, Liquid | 453.48
463.15 K, 4000 kPa, Liquid | 479.86
463.15 K, 5500 kPa, Liquid | 505.34
463.15 K, 7000 kPa, Liquid | 529.91
463.15 K, 8500 kPa, Liquid | 553.58
463.15 K, 10000 kPa, Liquid | 576.34
473.15 K, 1010 kPa, Gas | 187.27
473.15 K, 1010 kPa, Liquid | 380.39
473.15 K, 4000 kPa, Liquid | 438.87
473.15 K, 5500 kPa, Liquid | 465.66
473.15 K, 7000 kPa, Liquid | 491.59
473.15 K, 8500 kPa, Liquid | 516.66
473.15 K, 10000 kPa, Liquid | 540.87
483.15 K, 1240 kPa, Gas | 179.96
483.15 K, 1240 kPa, Liquid | 334.95
483.15 K, 4000 kPa, Liquid | 397.75
483.15 K, 5500 kPa, Liquid | 425.9
488.15 K, 1370 kPa, Gas | 175.42
488.15 K, 1370 kPa, Liquid | 311.9
493.15 K, 1520 kPa, Gas | 169.9
493.15 K, 1520 kPa, Liquid | 288.63
493.15 K, 4000 kPa, Liquid | 356.51
493.15 K, 5500 kPa, Liquid | 386.06
498.15 K, 1680 kPa, Gas | 163.13
498.15 K, 1680 kPa, Liquid | 265.12
498.15 K, 4000 kPa, Liquid | 335.85
498.15 K, 5500 kPa, Liquid | 366.12
503.15 K, 1860 kPa, Gas | 154.8
503.15 K, 1860 kPa, Liquid | 241.38
503.15 K, 4000 kPa, Liquid | 315.16
503.15 K, 5500 kPa, Liquid | 346.15
508.15 K, 2060 kPa, Gas | 144.62
508.15 K, 2060 kPa, Liquid | 217.4
508.15 K, 4000 kPa, Liquid | 294.43
508.15 K, 5500 kPa, Liquid | 326.16
513.15 K, 2270 kPa, Gas | 132.28
513.15 K, 2270 kPa, Liquid | 193.18
513.15 K, 4000 kPa, Liquid | 273.68
513.15 K, 5500 kPa, Liquid | 306.15
518.15 K, 2500 kPa, Gas | 117.47
518.15 K, 2500 kPa, Liquid | 168.7
518.15 K, 4000 kPa, Liquid | 252.89
518.15 K, 5500 kPa, Liquid | 286.12
523.15 K, 2760 kPa, Gas | 99.85
523.15 K, 2760 kPa, Liquid | 143.98
523.15 K, 4000 kPa, Liquid | 232.08
523.15 K, 5500 kPa, Liquid | 266.07
537.15 K, 5000 kPa, Fluid (supercritical or subcritical phases) | 228.75
537.15 K, 6000 kPa, Fluid (supercritical or subcritical phases) | 279.45
538.63 K, 4000 kPa, Fluid (supercritical or subcritical phases) | 166.74
540.07 K, 7000 kPa, Fluid (supercritical or subcritical phases) | 308.01
547.15 K, 5000 kPa, Fluid (supercritical or subcritical phases) | 173.14
547.15 K, 6000 kPa, Fluid (supercritical or subcritical phases) | 231.15
548.05 K, 7000 kPa, Fluid (supercritical or subcritical phases) | 273.71
548.23 K, 4000 kPa, Fluid (supercritical or subcritical phases) | 93.78
557.15 K, 5000 kPa, Fluid (supercritical or subcritical phases) | 137.45
557.15 K, 6000 kPa, Fluid (supercritical or subcritical phases) | 185.53
557.95 K, 4000 kPa, Fluid (supercritical or subcritical phases) | 114.59
558.89 K, 7000 kPa, Fluid (supercritical or subcritical phases) | 235.39
567.15 K, 5000 kPa, Fluid (supercritical or subcritical phases) | 122.01
567.15 K, 6000 kPa, Fluid (supercritical or subcritical phases) | 152.32
567.35 K, 4000 kPa, Fluid (supercritical or subcritical phases) | 139.87
568.4 K, 7000 kPa, Fluid (supercritical or subcritical phases) | 200.04
577 K, 5000 kPa, Fluid (supercritical or subcritical phases) | 139.01
577 K, 6000 kPa, Fluid (supercritical or subcritical phases) | 140.84
577.42 K, 7000 kPa, Fluid (supercritical or subcritical phases) | 176.29
577.5 K, 4000 kPa, Fluid (supercritical or subcritical phases) | 156.64
586.07 K, 7000 kPa, Fluid (supercritical or subcritical phases) | 158.23
586.09 K, 6000 kPa, Fluid (supercritical or subcritical phases) | 146.23
586.58 K, 4000 kPa, Fluid (supercritical or subcritical phases) | 172.49
586.8 K, 5000 kPa, Fluid (supercritical or subcritical phases) | 155.55
597.62 K, 7000 kPa, Fluid (supercritical or subcritical phases) | 156.64
598.22 K, 6000 kPa, Fluid (supercritical or subcritical phases) | 159.43
599.01 K, 5000 kPa, Fluid (supercritical or subcritical phases) | 172.16
599.67 K, 4000 kPa, Fluid (supercritical or subcritical phases) | 188.97
607.67 K, 7000 kPa, Fluid (supercritical or subcritical phases) | 165.36
608.42 K, 6000 kPa, Fluid (supercritical or subcritical phases) | 174.49
609.14 K, 5000 kPa, Fluid (supercritical or subcritical phases) | 187.44
610.53 K, 4000 kPa, Fluid (supercritical or subcritical phases) | 204.31
616.46 K, 7000 kPa, Fluid (supercritical or subcritical phases) | 175.98
617.13 K, 6000 kPa, Fluid (supercritical or subcritical phases) | 187.48
618.08 K, 5000 kPa, Fluid (supercritical or subcritical phases) | 199.99
618.29 K, 4000 kPa, Fluid (supercritical or subcritical phases) | 213.66
626.75 K, 7000 kPa, Fluid (supercritical or subcritical phases) | 188.95
627.35 K, 6000 kPa, Fluid (supercritical or subcritical phases) | 199.55
628.15 K, 5000 kPa, Fluid (supercritical or subcritical phases) | 210.83
629.14 K, 4000 kPa, Fluid (supercritical or subcritical phases) | 222.93
636.88 K, 6000 kPa, Fluid (supercritical or subcritical phases) | 207.42
636.88 K, 7000 kPa, Fluid (supercritical or subcritical phases) | 199.92
638.41 K, 5000 kPa, Fluid (supercritical or subcritical phases) | 218.7
639.77 K, 4000 kPa, Fluid (supercritical or subcritical phases) | 229.85
645.57 K, 5000 kPa, Fluid (supercritical or subcritical phases) | 222.56
645.57 K, 6000 kPa, Fluid (supercritical or subcritical phases) | 213.28
645.57 K, 7000 kPa, Fluid (supercritical or subcritical phases) | 204.49
646.51 K, 4000 kPa, Fluid (supercritical or subcritical phases) | 233.5
656.29 K, 5000 kPa, Fluid (supercritical or subcritical phases) | 226.62
656.29 K, 7000 kPa, Fluid (supercritical or subcritical phases) | 208.95
656.31 K, 6000 kPa, Fluid (supercritical or subcritical phases) | 217.14
657.59 K, 4000 kPa, Fluid (supercritical or subcritical phases) | 237.14
669.94 K, 5000 kPa, Fluid (supercritical or subcritical phases) | 230.37
669.94 K, 7000 kPa, Fluid (supercritical or subcritical phases) | 211.48
669.98 K, 6000 kPa, Fluid (supercritical or subcritical phases) | 220.01
670.97 K, 4000 kPa, Fluid (supercritical or subcritical phases) | 240.91
680.25 K, 5000 kPa, Fluid (supercritical or subcritical phases) | 233.53
680.27 K, 4000 kPa, Fluid (supercritical or subcritical phases) | 242.88
680.27 K, 7000 kPa, Fluid (supercritical or subcritical phases) | 215.49
680.32 K, 6000 kPa, Fluid (supercritical or subcritical phases) | 223.86

— the NIST ThermoML archive (doi:10.1016/j.fluid.2015.10.026)
